Laboratory results taken from US20150216823A1, “COMPOSITIONS FOR THE TREATMENT OF MIGRAINE HEADACHES AND METHODS THEREOF” (priority 2012, published 2015).
Read-outs that look alike come from different tables or passages of the source.

Key:
[1] = cited from earlier work
[2] = Capsaicin solubilization experiments with varying Tween 80, visual assessment; type: physicochemical; conditions: capsaicin at 0.05-0.055% concentration
Source text: Therefore, it was decided to evaluate the use of the concentrated capsaicin (a white powder) as a replacement for the oily oleoresin capsicum extract. However, as capsaicin powder is hydrophobic it was necessary to determine what quantity of surfactant was necessary to maintain the capsaicin in solution. A study was therefore conducted to determine the required concentration of a chosen surfactant (Tween 80) to achieve and maintain complete dissolution of the capsaicin (assuming a capsaicin concentration of 0.054% w/v). In other words, the level of surfactant required for dissolving the capsaicin in an aqueous vehicle was determined as described below.
A series of experiments were undertaken to prepare various samples with the addition of a set quantity of capsaicin powder (equivalent to 0.05% in solution) and varying concentrations of Tween 80.
Sample 1: 1% Tween 80 was prepared according to the following protocol: […]; Tween 80; […]; and 10 mL stock solution. The sample was sonicated for 2 minutes and then visually assessed. […]
Sample 2: 0.5% Tween 80 was prepared according to the following protocol: […] Tween 80; 0.011 g capsaicin; and 10 mL stock solution. The sample was sonicated for 2 minutes and then visually assessed. […]
All samples were left overnight and visually assessed again on the following day. […]

With `NC(=O)CC[C@@H]1NC(=O)[C@H](Cc2ccccc2)NC(=O)[C@H](Cc2ccc(O)cc2)NC(=O)CCSSC[C@@H](C(=O)N2CCC[C@H]2C(=O)N[C@H](CCCN=C(N)N)C(=O)NCC(N)=O)NC(=O)[C@H](CC(N)=O)NC1=O` [desmopressin] as the molecule, how does the “bio-availability of the nasal spray formulation relative to the nasal drop formulation” value ([1]; in vivo) read?
The value was “two to three times higher”.

With `CCC(=O)O[C@]1(C(=O)SCF)[C@H](C)C[C@H]2[C@@H]3C[C@H](F)C4=CC(=O)C=C[C@]4(C)[C@@]3(F)[C@@H](O)C[C@@]21C` [fluticasone propionate] as the molecule, how does the “bio-availability of the nasal spray formulation relative to the nasal drop formulation” value ([1]; intranasal administration) read?
The value was “about eight times higher”.

For `COc1cc(CNC(=O)CCCC/C=C/C(C)C)ccc1O` [capsaicin], which “required concentration of Tween 80 in the stock solution to achieve complete dissolution of capsaicin” value [2] is on record?
The value was 0.5 % w/v.
